This note sets out measurements from patent US20090192298A1, “Through-bond energy transfer cassettes, systems and methods” (priority 2007, published 2009).

Common to all, as to type: physicochemical
The nature of data set [1]: Spectral Properties of 9 in CH2Cl2, Table 3. Details: emax: unit not given beside the values. The conditions noted are these: for Ff: Rhodamine 101 in EtOH as the standard.
A short description of data set [2]: Spectral properties (absorbance, fluorescence, quantum yield) of sulfonated BODIPY dyes 6, Table 1. Particulars: for F: Fluorescein in 0.1M NaOH as standard. An excerpt:
A fluorophore, according to some embodiments of the disclosure, may have a high extinction coefficient and/or a sharp, intense fluorescence emission (e.g., rivaling that of the BODIPY dyes). A fluorophore may also have single molecule detection capacity.

Data set [3] is described as follows: Fluorescence properties of water-soluble Nile Blue derivatives in aqueous media. Particulars: for quantum yields versus I and J: pH 7.4 in aqueous media; for fwmh less than reported water-soluble Nile Blue derivatives: phosphate buffer pH 7.4, versus I and J. An excerpt: A dye may include, in some embodiments, one or more of Nile Blue derivatives 17-20 (FIG. 11).

Data set [4] can be described thus: Water solubility of through-bond energy transfer cassettes.
Where [5] appears, read: 0.1M lithium phosphate buffer (pH = 7.4).

For the molecule `CCC(C)Nc1c2ccc(=[N+]3CCCCC3)cc-2oc2cc(N3CCCCC3)ccc12.O=S(=O)([O-])C(F)(F)F` (racemic) [9c], in data set [1], the If amounted to 537 nm, the Imax is 456 nm, the emax is on record as 52423 and the “fwhm (full width at half-maximum height)” value is on record as 52 nm. For the same molecule, in data set [1], the Ff amounted to 0.85 ± 0.01.

In data set [2] (solvent MeOH), `CC1=[N+]2C(=Cc3c(C)cc(C)n3[B-]2(F)F)C(=O)N1C` [6a] yielded an Imax abs of 477 nm, an Imax emiss of 485 nm, an e of 57286 M⁻¹ cm⁻¹ and a fwhm of 19 nm. In data set [2] (solvent MeOH), this molecule came in with an F of 0.89 ± 0.01.

`Cc1cc(C)n2c1C=C1C(=O)N(C)C(c3ccccc3)=[N+]1[B-]2(F)F` [6b]: in data set [2] (solvent MeOH), the Imax abs came out at 490 nm, the Imax emiss is recorded as 521 nm, the e amounted to 58684 M⁻¹ cm⁻¹ and the fwhm was 46 nm. The F in data set [2] (solvent MeOH) is reported as 0.87 ± 0.01.

Take `Cc1cc(C)n2c1C=C1C(=O)N(C)C(c3ccc(I)cc3)=[N+]1[B-]2(F)F` [6c]: in data set [2] (solvent MeOH), the Imax abs amounted to 492 nm, the Imax emiss was found to be 532 nm, the e worked out at 57303 M⁻¹ cm⁻¹ and the fwhm worked out at 54 nm. Besides, the F in data set [2] (solvent MeOH) is 0.86 ± 0.02.

In data set [2] (solvent MeOH), `COc1ccc(C2=[N+]3C(=Cc4c(C)cc(C)n4[B-]3(F)F)C(=O)N2C)cc1` [6d] yielded an Imax abs of 493 nm, an Imax emiss of 521 nm, an e of 51269 M⁻¹ cm⁻¹ and a fwhm of 38 nm. In data set [2] (solvent MeOH), this molecule had an F of 0.85 ± 0.03.

In the case of `Cc1cc(C)n2c1C=C1C(=O)NC(c3ccccc3)=[N+]1[B-]2(F)F` [6e], in data set [2] (solvent MeOH), the Imax abs was 495 nm, the Imax emiss amounted to 531 nm, the e was determined as 37867 M⁻¹ cm⁻¹ and the fwhm is listed as 48 nm. The molecule further returned a F in data set [2] (solvent MeOH) of 0.80 ± 0.01.

In data set [2] (solvent Hexanes), `Cc1cc(C)n2c1C=C1C(=O)N(C)C(c3ccc([N+](=O)[O-])cc3)=[N+]1[B-]2(F)F` [6f] had an Imax abs of 498 nm, an Imax emiss of 587 nm, a fwhm of 53 nm and an F of 0.53 ± 0.01. In data set [2] (solvent MeOH), this molecule yielded an Imax abs of 492 nm, an Imax emiss of 598 nm, an e of 44003 M⁻¹ cm⁻¹ and a fwhm of 120 nm. This molecule showed a F in data set [2] (solvent MeOH) of 0.0004.

In data set [2] (setting [5]), `Cc1c(S(=O)(=O)[O-])c(C)n2c1C=C1C(=O)N(C)C(c3ccc(I)cc3)=[N+]1[B-]2(F)F.[Na+]` [6g] registered an Imax abs of 481 nm, an Imax emiss of 518 nm, an e of 46461 M⁻¹ cm⁻¹ and a fwhm of 50 nm. Also, the F in data set [2] (setting [5]) came to 0.87 ± 0.01. In data set [2] (solvent MeOH), the Imax abs was determined as 488 nm, the Imax emiss is reported as 531 nm, the e came to 48132 M⁻¹ cm⁻¹ and the fwhm is recorded as 53 nm. The molecule further displayed a F in data set [2] (solvent MeOH) of 0.88 ± 0.01.

In data set [2] (setting [5]), `Cc1c(S(=O)(=O)O)c(C)n2c1C=C1C(=O)N(C)C(c3ccc(C#CCCCC(=O)O)cc3)=[N+]1[B-]2(F)F` [6h] had an Imax abs of 482 nm, an Imax emiss of 526 nm, an e of 34766 M⁻¹ cm⁻¹ and a fwhm of 56 nm. In addition, the F in data set [2] (setting [5]) was found to be 0.82 ± 0.01. In addition, in data set [2] (solvent MeOH), the Imax abs was determined as 488 nm, the Imax emiss turned out to be 538 nm, the e turned out to be 35024 M⁻¹ cm⁻¹ and the fwhm is recorded as 58 nm. The molecule further returned a F in data set [2] (solvent MeOH) of 0.84 ± 0.01.

`O=S(=O)([O-])C(F)(F)F.c1cc2c(N3CCCCC3)c3ccc(=[N+]4CCCCC4)cc-3oc2cc1N1CCCCC1` [9a]: in data set [1], the If is recorded as 562 nm, the Imax is 491 nm, the emax came to 60409 and the “fwhm (full width at half-maximum height)” value worked out at 55 nm. The Ff in data set [1] was determined as 0.14 ± 0.01.

Take `CCN(CC)c1c2ccc(=[N+]3CCCCC3)cc-2oc2cc(N3CCCCC3)ccc12.O=S(=O)([O-])C(F)(F)F` [9b]: in data set [1], the If is given as 558 nm, the Imax is 499 nm, the emax stood at 50978 and the “fwhm (full width at half-maximum height)” value came to 41 nm. For the same molecule, the Ff in data set [1] is on record as 0.11 ± 0.02.

As to `CC(Nc1c2ccc(=[N+]3CCCCC3)cc-2oc2cc(N3CCCCC3)ccc12)C(=O)OC(C)(C)C.O=S(=O)([O-])C(F)(F)F` (centres unmarked) [9d], in data set [1], the If was found to be 544 nm, the Imax is recorded as 462 nm, the emax is given as 62044 and the “fwhm (full width at half-maximum height)” value came out at 52 nm. The Ff in data set [1] was determined as 0.90 ± 0.02.

With `O=S(=O)([O-])C(F)(F)F.c1ccc(CSc2c3ccc(=[N+]4CCCCC4)cc-3oc3cc(N4CCCCC4)ccc23)cc1` [9e], in data set [1], the If is recorded as 619 nm, the Imax was found to be 598 nm, the emax stood at 82617 and the “fwhm (full width at half-maximum height)” value is given as 38 nm. In data set [1], this molecule came in with a Ff of 0.79 ± 0.02.

Take `COC(=O)C1CCN(c2ccc3c(N4CCCCC4)c4ccc(=[N+]5CCC(C(=O)OC)CC5)cc-4oc3c2)CC1.O=S(=O)([O-])C(F)(F)F` (centres unmarked) [9f]: in data set [1], the If was 552 nm, the Imax is on record as 482 nm, the emax was 54908 and the “fwhm (full width at half-maximum height)” value came to 47 nm. Also, the Ff in data set [1] came out at 0.02 ± 0.001.

As for `CCN(CCCS(=O)(=O)O)c1ccc2nc3c4cc(O)ccc4c(=NCCCS(=O)(=O)O)cc-3oc2c1.Cl` [compound 17], in data set [3], the “quantum yields versus I and J” value is on record as “improved quantum yields”; the “fwmh less than reported water-soluble Nile Blue derivatives” value was 20 nm.

On to `Cl.O=C(O)CCN(CCC(=O)O)c1ccc2nc3c4cc(O)ccc4c(=NCCCS(=O)(=O)O)cc-3oc2c1` [compound 18], for which, in data set [3], the “quantum yields versus I and J” value was “improved quantum yields”; the “fwmh less than reported water-soluble Nile Blue derivatives” value is reported as 20 nm.

In the case of `COc1ccccc1C1=[N+]2C(=C(c3ccc(-c4cn(-c5ccc(C6=C7C(C)=C(S(=O)(=O)[O-])C(C)=[N+]7[B-](F)(F)n7c(C)c(S(=O)(=O)[O-])c(C)c76)cc5)nn4)cc3OCC(=O)O)c3ccc(-c4ccccc4OC)n3[B-]2(F)F)C=C1.[Na+].[Na+]` [compound 22], the water solubility result in data set [4] is on record as “water soluble”.
